We go through twelve compounds from paper PMC11661291, “Unique structural features in a deep-sea CYP51 relate to high pressure adaptation” (Research Square, 2024).

The term kcat denotes the number of substrate molecules converted per active site and unit of time at saturation. In general, Km refers to the substrate concentration at which the rate is half of its maximum. The term kcat/Km denotes the turnover number divided by the Michaelis constant.

Data set [1] concerns the target T1, C. armatus CYP51 (Coryphaenoides armatus, UniProt Z9AQN8BZD8). In words: Spectral titrations with sterol substrates (type I spectral response). Particulars: for Low-to-high spin state transition in the heme iron / Change in absorbance, ΔAmax per μM P450: sterol 0.25–3 μM; for Low-to-high spin state transition in the heme iron: 22 °C; for Change in absorbance, ΔAmax per μM P450: optical pathlength 1 cm.
Protocol: Equal amounts of the HPCD solution were added to the reference cuvette to correct for the solvent-induced spectral perturbations, and the difference spectra were taken in the wavelength range of 350–500 nm. The apparent spectral dissociation constants of the enzyme-substrate complex (Kd) were calculated in GraphPad Prism software by fitting the data for the substrate-induced absorbance changes Δ(A390-A423) versus substrate concentration to a one site-total binding equation (binding-saturation).

For data set [2], the target named is T1, C. armatus CYP51. Put plainly: Reconstituted catalytic activity, steady-state kinetic analysis of sterol 14α-demethylation. Particulars: 0.25 μM P450, 1 μM CPR, 1 min reaction, 37 °C.
Protocol: (§1) The samples were preincubated for 3 min at 37 °C in a shaking water bath, the reaction was initiated by the addition of 100 μM NADPH and stopped by the extraction of sterols with ethyl acetate. The extracted sterols were dried, dissolved in 100 μL of methanol, and the products were analyzed by reversed-phase HPLC equipped with a β-RAM detector (INUS Systems) using a Nova-Pak 3.9 mm × 150 mm (4 μm) octadecylsilane (C18) HPLC column. The products were separated with an isocratic mobile phase composed of acetonitrile and methanol (4:1 (v/v)) at a flow rate of 0.75 mL/min[9]. Michaelis-Menten parameters were calculated using GraphPad Prism. The kcat and Km values for each reaction were determined by fitting the data to a Michaelis–Menten hyperbola, with the reaction rates (nmol product formed/nmol P450/min) being plotted versus total substrate concentration.
For data set [3], the target named is T1, C. armatus CYP51. Put plainly: Stabilizing effect of TMAO registered by CO-binding spectra. As to the method: Absorption spectra (270–700 nm) were recorded at 22 °C using a dual-beam Shimadzu UV-2600i spectrophotometer and software UVProbe2.71. The P450 concentration was determined from the Soret band absorbance in the absolute spectrum, the extinction coefficient 117 mM^−1 cm^−1 for the low-spin ferric form or 91 mM^−1 cm^−1 for the reduced (ferrous) carbon monoxide (CO) complex in the difference spectra[51].The spin state of the P450 samples was estimated from the absolute spectra using the ratio (ΔA393–470/ΔA417–470), with values of 0.35 and 2.0 corresponding to 100% low- and 100% high-spin iron, respectively.
After data collection the crystals were dissolved in phosphate buffered saline (PBS, Gibco). UV-visible absolute absorption spectra (270–700 nm) were recorded at room temperature using a single beam spectrophotometer NanoVue,4282 (CE Healthcare) (Figure S4A). CO-binding difference absorption spectra (400–500 nm) were recorded using a dual-beam Shimadzu UV-2600i spectrophotometer as follows. The CO gas was bubbled through the protein solution, which was then divided into two cuvettes serving as a blank and standard, respectively. The baseline was taken, and a few crystals of sodium dithionate were added to the sample cuvette (Figure S4B). The corresponding spectra of the original protein sample that was used for crystallization were taken for comparison.

Data set [4] addresses T1, C. armatus CYP51. Put plainly: Inhibition of reconstituted enzymatic activity (decrease in substrate conversion in 1 h reaction). The note with it: enzyme/inhibitor/substrate 1:50:50, 60 min, 0.5 μM P450.
Protocol: as §1
In data set [5] the target is T1, C. armatus CYP51. Put plainly: Spectral titrations with azole-based ligands.
Protocol: Titrations with azole-based compounds were carried out at 0.5 μM P450 concentration in 5-cm optical path length cuvettes. Aliquots of 0.1 mM compounds dissolved in dimethyl sulfoxide (DMSO) were added to the sample cuvette, with each titration step being 0.1 μM. At each step, the corresponding volume of DMSO was added to the reference cuvette. The apparent spectral dissociation constants (Kd) were calculated in GraphPad Prism software as described for human CYP51[21].
Data set [6] addresses human CYP51. Also on record: method as in PMID 27313059. The note with it: azole ligand; read-out: apparent dissociation constant (Kd); cited from earlier work.
The subject of data set [7] is human CYP51. Also on record: method as in PMID 27313059. Particulars: 50-fold molar excess of inhibitor over enzyme, 1-hour reaction; cited from earlier work.
For data set [8], the system named is C=C(CC[C@@H](C)C1CC[C@@]2(C)C3=C(CC[C@]12C)[C@@]1(C)CC[C@H](O)C(C)(C)C1CC3)C(C)C. In words: purified protein, by the assay type. The note with it: other: 0.25 μM P450, 1 μM CPR, 1 min reaction, 37 °C.
Protocol: as §1
The subject of data set [9] is C=C(CC[C@@H](C)[C@H]1CC[C@@]2(C)C3=C(CC[C@]12C)[C@@]1(C)CC[C@H](O)[C@@H](C)[C@@H]1CC3)C(C)C. Put plainly: purified protein, by the assay type. Particulars: other: 0.25 μM P450, 1 μM CPR, 1 min reaction, 37 °C.
Protocol: as §1
Data set [10] has as its system CC(C)=CCC[C@@H](C)[C@H]1CC[C@@]2(C)C3=C(CC[C@]12C)[C@@]1(C)CC[C@H](O)C(C)(C)[C@@H]1CC3. In words: purified protein, by the assay type. Particulars: other: 0.25 μM P450, 1 μM CPR, 1 min reaction, 37 °C.
Protocol: as §1

T1 sequence (Z9AQN8BZD8 6-449 limits assumed): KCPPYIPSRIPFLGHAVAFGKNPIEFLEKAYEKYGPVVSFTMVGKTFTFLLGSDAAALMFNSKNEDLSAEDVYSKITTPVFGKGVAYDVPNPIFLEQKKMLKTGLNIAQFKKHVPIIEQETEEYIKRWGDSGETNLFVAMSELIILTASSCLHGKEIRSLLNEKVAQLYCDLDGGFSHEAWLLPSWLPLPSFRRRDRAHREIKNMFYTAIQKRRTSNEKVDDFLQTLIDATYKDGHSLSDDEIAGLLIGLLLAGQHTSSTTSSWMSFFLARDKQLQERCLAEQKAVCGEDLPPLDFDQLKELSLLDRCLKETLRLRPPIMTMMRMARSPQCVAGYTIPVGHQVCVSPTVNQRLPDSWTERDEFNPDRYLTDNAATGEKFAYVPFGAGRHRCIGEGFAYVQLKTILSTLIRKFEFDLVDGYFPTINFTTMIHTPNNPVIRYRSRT

In the case of `C=C(CC[C@@H](C)C1CC[C@@]2(C)C3=C(CC[C@]12C)[C@@]1(C)CC[C@H](O)C(C)(C)C1CC3)C(C)C` (stereo partly drawn), on C. armatus CYP51 [1] (read-out: Kd (apparent spectral dissociation constant), sterol substrate, P450 2 μM), the Kd came to 1.02 µM. At C. armatus CYP51 [1] (P450 2 μM), the “Low-to-high spin state transition in the heme iron” value (from here on “Low-to-high spin state transition”) was determined as 27% and the “Change in absorbance, ΔAmax per μM P450” value is 30. For the same compound, the turnover number (kcat) at C. armatus CYP51 [2] worked out at 1.03 s⁻¹.

Regarding `CC(C)=CCC[C@@H](C)[C@H]1CC[C@@]2(C)C3=C(CC[C@]12C)[C@@]1(C)CC[C@H](O)C(C)(C)[C@@H]1CC3` [Lanosterol], the Kd on C. armatus CYP51 [1] is 0.77 µM. For the same compound, on C. armatus CYP51 [1] (P450 2 μM), the “Low-to-high spin state transition” value came out at 22% and the “Change in absorbance, ΔAmax per μM P450” value was determined as 24. For the same compound, the catalytic constant (kcat) at C. armatus CYP51 [2] was 0.797 s⁻¹.

As to `C=C(CC[C@@H](C)[C@H]1CC[C@@]2(C)C3=C(CC[C@]12C)[C@@]1(C)CC[C@H](O)[C@@H](C)[C@@H]1CC3)C(C)C` [Obtusifoliol], the Kd on C. armatus CYP51 [1] is 0.56 µM. Further, on C. armatus CYP51 [1] (P450 2 μM), the “Low-to-high spin state transition” value is reported as 13% and the “Change in absorbance, ΔAmax per μM P450” value came out at 14. For the same compound, at C. armatus CYP51 [2], the catalytic constant (kcat) stood at 0.865 s⁻¹.

`C[N+](C)(C)[O-]` [TMAO, trimethylamine oxide]: the “spectral response in the heme iron” value on C. armatus CYP51 [3] is given as “does not cause any spectral response”. For the same compound, the “P450 recovery after overnight incubation (CO-binding spectra)” value on C. armatus CYP51 [3] (10 μM TMAO, overnight storage at 4 °C in PBS) is given as 90%.

For the compound `N#Cc1ccc(COc2ccc(C#Cc3ccc(C(F)(F)[C@](O)(Cn4cnnn4)c4ccc(F)cc4F)nc3)cc2)cc1` [VT-1598], the “inhibition of C. armatus CYP51 activity” value against C. armatus CYP51 [4] is recorded as “did not have any inhibitory effect”.

As for `C[C@@H](c1nc(-c2ccc(C#N)cc2)cs1)[C@](O)(Cn1cncn1)c1cc(F)ccc1F` [isavuconazole], the “inhibition of C. armatus CYP51 activity” value at C. armatus CYP51 [4] is “did not have any inhibitory effect”.

Consider `CCC(C)n1ncn(-c2ccc(N3CCN(c4ccc(OCC5COC(Cn6cncn6)(c6ccc(Cl)cc6Cl)O5)cc4)CC3)cc2)c1=O` (stereo not drawn) [itraconazole], for which the Kd at C. armatus CYP51 [5] was 0.62 µM; at human CYP51 [6], 1.29 µM. Moreover, at C. armatus CYP51 [4], the “inhibition of C. armatus CYP51 activity” value is “did not have any inhibitory effect”.

For `CC(=O)N1CCN(c2ccc(OCC3COC(Cn4ccnc4)(c4ccc(Cl)cc4Cl)O3)cc2)CC1` (stereo not drawn) [ketoconazole], the figures for the Kd at C. armatus CYP51 [5] and at human CYP51 [6] were 0.01 µM and 0.07 µM, respectively. Moreover, the “lanosterol converted in presence of inhibitor” value with human CYP51 [7] is given as 100%.

Consider `O[C@@](Cn1cnnn1)(c1ccc(F)cc1F)C(F)(F)c1ccc(-c2ccc(OCC(F)(F)F)cc2)cn1` [oteseconazole], for which, at C. armatus CYP51 [4], the “inhibition of C. armatus CYP51 activity” value is reported as “did not have any inhibitory effect”.

Consider `CC[C@@H]([C@H](C)O)n1ncn(-c2ccc(N3CCN(c4ccc(OC[C@@H]5CO[C@@](Cn6cncn6)(c6ccc(F)cc6F)C5)cc4)CC3)cc2)c1=O` [posaconazole], for which, on C. armatus CYP51 [4], the “inhibition of C. armatus CYP51 activity” value is recorded as “did not have any inhibitory effect”.

For `C[C@@H](c1ncncc1F)[C@](O)(Cn1cncn1)c1ccc(F)cc1F` [voriconazole], the Kd on C. armatus CYP51 [5] was 0.61 µM; at human CYP51 [6], 2.53 µM. In addition, the “inhibition of C. armatus CYP51 activity” value at C. armatus CYP51 [4] is “did not have any inhibitory effect”.

Turning to “C. armatus CYP51 (Coryphaenoides armatus)”, the Km in [8] turned out to be 13.0 µM; in data set [9] it was 7.9 µM; in data set [10], 8.1 µM. Further, the kcat in data set [8] worked out at 1.03 s⁻¹; in [9], 0.865 s⁻¹; in [10], 0.797 s⁻¹. Further, the kcat/Km turned out to be 80000 M⁻¹ s⁻¹ in data set [8], 110000 M⁻¹ s⁻¹ in [9] and 98300 M⁻¹ s⁻¹ in [10].
